{
  "source": "patent US20210253598A1",
  "about": "“ARYL ANNULATED MACROCYCLIC INDOLE DERIVATIVES” (priority 2017, published 2021)",
  "key": {"[1]": {"settings": "the molecule shown is the open-chain precursor; crosslinker bond; 11-membered ring; 2,3-bis(chloromethyl)pyrazine/Cs2CO3/NaI; MeCN; 9.09 mM; 70.0 °C"}, "[2]": {"settings": "11-membered ring"}, "[3]": {"settings": "the molecule shown is the open-chain precursor; crosslinker bond; 11-membered ring; 2,3-bis(chloromethyl)pyridine HCl/Cs2CO3/NaI; MeCN; 73.1 mM; 75.0 °C"}, "MCL-1": {"biological_target": "MCL-1 (Homo sapiens, UniProt Q07820, K194A/K197A/R201A)", "sequence (Q07820 173-321 K194A/K197A/R201A, looked up)": "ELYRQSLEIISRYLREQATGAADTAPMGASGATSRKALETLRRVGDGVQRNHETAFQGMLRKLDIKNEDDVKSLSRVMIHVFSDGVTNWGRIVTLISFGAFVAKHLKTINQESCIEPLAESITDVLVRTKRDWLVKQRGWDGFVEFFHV", "assay": "Protein-protein interaction assay MCL-1/Noxa BH3 peptide, TR-FRET (MCL-1 assay, Assay 1)", "format": "binding", "settings": "MCL-1 Assay [M] (median), MBP-MCL-1 / Noxa BH3 peptide", "method_in_brief": "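TR-FRET competition between compounds and a biotin-PEG Noxa BH3 tracer for 1 nM MBP-MCL-1 (residues 173-321). Incubation was 1 h at 22 °C in the dark, then overnight at 4 °C, in 50 mM Tris pH 7 buffer with KF and DTT, after a 10-min compound pre-equilibration. Normalized ratios were fitted with a 4-parameter Hill equation to give IC50.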"}, "SUDHL5 [4]": {"system": "SUDHL5", "assay": "Anti-proliferative effect in SUDHL5 cells, CellTiter-Glo (Assay 7)", "format": "cell-based", "settings": "SUDHL5, 72 hours incubation, CellTiter-Glo, median, read-out: Antiproli SUDHL5 [M] (median)", "method_in_brief": "(§1)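 Overnight seeding at 37 °C, then 72 h treatment with compound; day 0 plate read at start. Luminescent ATP-based viability readout (CellTiter-Glo). IC50 normalised between day 0 and DMSO values.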"}, "HMC-1-8": {"system": "HMC-1-8", "assay": "Anti-proliferative effect in HMC-1-8 cells, CellTiter-Glo (Assay 7)", "format": "cell-based", "settings": "HMC-1-8, 72 hours incubation, read-out: Antiproli HMC-1-8", "experimental": "Assessment of the Anti-Proliferative Effect of Compounds in Different Cell Lines\nThe impact of compounds on the proliferation of different cell lines was assessed using the CellTiter-Glo® Luminescent Cell Viability reagent from Promega (G7573).\nIn parallel, cells were plated in a reference (day 0) plate for time zero determination. Cells were incubated in a humidified incubator at 37° C. overnight.\nRim wells were excluded. The cells were incubated for 72 hours in a humidified incubator at 37° C. The day 0 plate was measured by adding 30 μL/well of CTG solution (CellTiter-Glo® Luminescent Cell Viability reagent, Promega G7573) to time zero wells in the reference plate followed by a 10 minutes incubation and luminescence reading at 0.1 ms. using the PHERAstar FS microplate reader (BMG Labtech).\nAfter 72 hours incubation, the treated plates were measured in the same way as the day 0 plate mentioned above. The Bella DRC Master Sheet was used to calculate IC50s, with CI=day 0 values and C0=DMSO control values."}, "A2780": {"system": "A2780", "assay": "Anti-proliferative effect in A2780 cells, CellTiter-Glo (Assay 7)", "format": "cell-based", "settings": "Homo sapiens, A2780, 72 h, A2780, 72 hours incubation, CellTiter-Glo; several values per example; read-out: Antiproli A2780", "method_in_brief": "as §1"}, "AMO-1": {"system": "AMO-1", "assay": "Anti-proliferative effect in AMO-1 cells, CellTiter-Glo (Assay 7)", "format": "cell-based", "settings": "AMO-1, 72 hours incubation, CellTiter-Glo, several values per example, read-out: Antiproli AMO-1", "method_in_brief": "as §1"}, "BCL-XL": {"biological_target": "BCL-XL (Homo sapiens, UniProt Q07817)", "sequence (Q07817 1-212)": "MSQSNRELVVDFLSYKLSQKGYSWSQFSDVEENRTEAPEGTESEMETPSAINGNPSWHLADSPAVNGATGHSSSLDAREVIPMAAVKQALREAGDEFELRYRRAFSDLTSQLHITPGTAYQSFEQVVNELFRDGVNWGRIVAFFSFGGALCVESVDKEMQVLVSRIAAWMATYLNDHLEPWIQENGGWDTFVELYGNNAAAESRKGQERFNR", "assay": "Protein-protein interaction assay BCL-XL/Bad BH3 peptide, TR-FRET (BCL-XL assay, Assay 2)", "format": "binding", "settings": "His-BCL-XL / Bad BH3 peptide, median"}, "BCL-2": {"biological_target": "BCL-2 (Homo sapiens, UniProt P10415)", "sequence (P10415 1-211)": "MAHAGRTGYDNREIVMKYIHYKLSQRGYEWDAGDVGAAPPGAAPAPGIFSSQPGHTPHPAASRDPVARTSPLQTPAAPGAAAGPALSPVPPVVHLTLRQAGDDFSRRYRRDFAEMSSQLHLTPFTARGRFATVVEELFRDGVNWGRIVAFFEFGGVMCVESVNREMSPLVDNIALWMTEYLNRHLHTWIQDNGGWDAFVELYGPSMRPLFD", "assay": "Protein-protein interaction assay BCL-2/Bad BH3 peptide, TR-FRET (BCL-2 assay, Assay 3)", "format": "binding", "settings": "His-BCL-2 / Bad BH3 peptide, median"}, "MV-4-11": {"system": "MV-4-11", "assay": "Anti-proliferative effect in MV-4-11 cells, CellTiter-Glo (Assay 7)", "format": "cell-based", "settings": "MV-4-11, 72 hours incubation, CellTiter-Glo, several values per example, read-out: Antiproli MV-4-11", "method_in_brief": "as §1"}, "SUDHL5 [5]": {"system": "SUDHL5", "assay": "Induction of cytotoxicity in SUDHL5 cells, CellTiter-Glo (Assay 6)", "format": "cell-based", "settings": "SUDHL5, 5 hours incubation, median, read-out: Cytotox SUDHL5 [M] (median)", "method_in_brief": "(§2)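 Luminescent ATP read-out (CellTiter-Glo) after 5 h compound exposure at 37° C. Cells seeded the day before; medium-only wells as background; rim wells excluded.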"}, "SUDHL10 [6]": {"system": "SUDHL10", "assay": "Induction of caspase-3/7 activity in SUDHL10 cells (Assay 4)", "format": "cell-based", "settings": "SUDHL10, 3 hours treatment, Caspase-Glo 3/7, median, read-out: Caspase SUDHL10 [M] (median)", "method_in_brief": "(§3)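 Luminescent Caspase-Glo 3/7 read-out in SUDHL5 and SUDHL10 cells after 3 h compound exposure at 37 °C, followed by 1 h reagent incubation.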"}, "SUDHL10 [7]": {"system": "SUDHL10", "assay": "Induction of cytotoxicity in SUDHL10 cells, CellTiter-Glo (Assay 6)", "format": "cell-based", "settings": "SUDHL10, 5 hours incubation, median, read-out: Cytotox SUDHL10 [M] (median)", "method_in_brief": "as §2"}, "SUDHL5 [8]": {"system": "SUDHL5", "assay": "Induction of caspase-3/7 activity in SUDHL5 cells (Assay 4)", "format": "cell-based", "settings": "SUDHL5, 3 hours treatment, Caspase-Glo 3/7, median, read-out: Caspase SUDHL5 [M] (median)", "method_in_brief": "as §3"}},
  "note": "“And” between values parts separate entries of the source, which are not always exact repeats. Equal values may be shown once. Read-outs that look alike come from different tables or passages of the source.",
  "data": [
    {"smiles": "CCOC(=O)c1[nH]c2c(-c3c(CO)nn(C)c3C)c(Cl)ccc2c1CCCOc1cccc2cc(F)ccc12", "values": [
      {"measurement": "ring closure, crude yield", "setting": "[1]", "value": 90, "unit": "%"},
      {"measurement": "ring closure, isolated yield", "setting": "[2]; the molecule shown is the open-chain precursor, crosslinker bond, 1,2-bis(bromomethyl)benzene/Cs2CO3, MeCN/THF 2:1, 24.3 mM, 80.0 °C", "value": 74, "unit": "%"}
    ]},
    {"smiles": "CCOC(=O)c1[nH]c2c(-c3c(CO)nn(C)c3C)cccc2c1CCCOc1cccc2ccccc12", "values": [
      {"measurement": "ring closure, yield after HPLC", "setting": "[3]", "value": "20% and 30%"}
    ]},
    {"smiles": "CCOC(=O)c1c(CCCOc2cccc3cc(F)ccc23)c2ccc(Cl)c3c2n1Cc1ccccc1COCc1c-3c(CC)nn1CCN1CCOCC1", "values": [
      {"measurement": "ring closure, yield of all isomers", "setting": "from CCOC(=O)c1c(CCCOc2cccc3cc(F)ccc23)c2ccc(Cl)c(-c3c(CC)nn(CCN4CCOCC4)c3CO)c2n1Cc1ccccc1CBr, ether bond, NaH / di-tert-butyl imidodicarbonate, DMF, 56.1 mM, 50.0 °C, […]", "value": 10, "unit": "%"},
      {"measurement": "ring closure, isolated yield", "setting": "[2]; from CCOC(=O)c1c(CCCOc2cccc3cc(F)ccc23)c2ccc(Cl)c(-c3c(CC)nn(CCN4CCOCC4)c3CO)c2n1Cc1ccccc1CBr, ether bond, NaH/di-tert-butyl imidodicarbonate, DMF, 56.1 mM, […]", "value": 10, "unit": "%"}
    ]},
    {"smiles": "CCOC(=O)c1c(CCCOc2cccc3ccccc23)c2ccc(Cl)c3c2n1Cc1ccccc1COCc1nn(C)c(C)c1-3", "values": [
      {"measurement": "ring closure, yield of all isomers", "setting": "from CCOC(=O)c1c(CCCOc2cccc3ccccc23)c2ccc(Cl)c(-c3c(CO)nn(C)c3C)c2n1Cc1ccccc1CBr, ether bond, sodium hydride / di-tert-butyl imidodicarbonate, THF, 29.9 mM, […], 72.0 h", "value": 76, "unit": "%"},
      {"measurement": "ring closure, isolated yield", "setting": "[2]; from CCOC(=O)c1c(CCCOc2cccc3ccccc23)c2ccc(Cl)c(-c3c(CO)nn(C)c3C)c2n1Cc1ccccc1CBr, ether bond, NaH/di-tert-butyl imidodicarbonate, THF, 29.9 mM, […]", "value": 76, "unit": "%"}
    ]},
    {"smiles": "CCOC(=O)c1c(CCCOc2cccc3ccccc23)c2cccc3c2n1Cc1ccccc1CNCc1nn(C)c(C)c1-3", "values": [
      {"measurement": "ring closure, yield of all isomers", "setting": "from CCOC(=O)c1c(CCCOc2cccc3ccccc23)c2cccc(-c3c(CBr)nn(C)c3C)c2n1Cc1ccccc1CN, amine bond, cesium carbonate, acetonitrile, 30.6 mM, 50.0 °C, 15.0 h", "value": 47.3, "unit": "%"}
    ]},
    {"smiles": "Cc1c2c(nn1C)COCc1nccnc1Cn1c(C(=O)O)c(CCCOc3cccc4cc(F)ccc34)c3ccc(Cl)c-2c31", "note": "(racemic) [Example 93, (rac)-3-Chloro-17-{3-[(6-fluoronaphthalen-1-yl)oxy]propyl}-4,5-dimethyl-5,7,9,14-tetrahydropyrazino[2′,3′:3,4]pyrazolo[4′,3′:9,10][1,6]oxazacycloundecino[8,7,6-hi]indole-16-carboxylic Acid]", "values": [
      {"measurement": "IC50", "setting": "MCL-1", "value": "1.5e-09", "unit": "M"},
      {"measurement": "IC50", "setting": "SUDHL5 [4]; Homo sapiens, SU-DHL-5, 72 h", "value": "2.5e-06", "unit": "M"},
      {"measurement": "IC50", "setting": "HMC-1-8; 72 h", "value": 32, "unit": "µM"},
      {"measurement": "IC50", "setting": "A2780", "value": "> 33", "unit": "µM"},
      {"measurement": "IC50", "setting": "AMO-1; Homo sapiens, AMO1, 72 h", "value": 7.19, "unit": "µM"},
      {"measurement": "IC50", "setting": "BCL-XL", "value": "> 20", "unit": "µM"},
      {"measurement": "IC50", "setting": "BCL-2", "value": "> 20", "unit": "µM"},
      {"measurement": "IC50", "setting": "MV-4-11; Homo sapiens, MV4-11, 72 h", "value": 15.1, "unit": "µM"},
      {"measurement": "IC50", "setting": "SUDHL5 [5]; Homo sapiens, SU-DHL-5, 5 h", "value": "2.8e-06", "unit": "M"},
      {"measurement": "EC50", "setting": "SUDHL10 [6]; Homo sapiens, SU-DHL10, 3 h", "value": "1e-05", "unit": "M"},
      {"measurement": "IC50", "setting": "SUDHL10 [7]; Homo sapiens, SU-DHL10, 5 h", "value": "6.7e-06", "unit": "M"},
      {"measurement": "EC50", "setting": "SUDHL5 [8]; Homo sapiens, SU-DHL-5, 3 h", "value": "2.5e-06", "unit": "M"}
    ]},
    {"smiles": "Cc1c2c(nn1C)COCc1nccnc1Cn1c(C(=O)O)c(CCCOc3cccc4ccccc34)c3ccc(Cl)c-2c31", "note": "(single isomer, unassigned; enantiomer 1) [Example 46, 3-Chloro-4,5-dimethyl-17-{3-[(naphthalen-1-yl)oxy]propyl}-5,7,9,14-tetrahydropyrazino-[2′,3′:3,4]pyrazolo[4′,3′:9,10][1,6]oxazacycloundecino[8,7,6-hi]indole-16-carboxylic Acid (Enantiomer 1)]", "values": [
      {"measurement": "IC50", "setting": "HMC-1-8; 72 h", "value": 11.9, "unit": "µM"},
      {"measurement": "IC50", "setting": "AMO-1; Homo sapiens, AMO1, 72 h", "value": 6.15, "unit": "µM"},
      {"measurement": "IC50", "setting": "BCL-XL", "value": "> 20", "unit": "µM"},
      {"measurement": "IC50", "setting": "BCL-2", "value": "> 20", "unit": "µM"},
      {"measurement": "IC50", "setting": "MV-4-11", "value": 5.27, "unit": "µM"},
      {"measurement": "EC50", "setting": "SUDHL10 [6]", "value": "7.3e-06", "unit": "M"},
      {"measurement": "IC50", "setting": "SUDHL10 [7]", "value": "7e-06", "unit": "M"},
      {"measurement": "EC50", "setting": "SUDHL5 [8]", "value": "1.8e-06", "unit": "M"}
    ]},
    {"smiles": "Cc1c2c(nn1C)COCc1nccnc1Cn1c(C(=O)O)c(CCCOc3cccc4ccccc34)c3ccc(Cl)c-2c31", "note": "(single isomer, unassigned; enantiomer 2) [Example 47, 3-Chloro-4,5-dimethyl-17-{3-[(naphthalen-1-yl)oxy]propyl}-5,7,9,14-tetrahydropyrazino-[2′,3′:3,4]pyrazolo[4′,3′:9,10][1,6]oxazacycloundecino[8,7,6-hi]indole-16-carboxylic Acid (Enantiomer 2)]", "values": [
      {"measurement": "IC50", "setting": "SUDHL5 [4]", "value": "4.6e-06", "unit": "M"},
      {"measurement": "IC50", "setting": "HMC-1-8", "value": 16.1, "unit": "µM"},
      {"measurement": "IC50", "setting": "AMO-1", "value": 11.5, "unit": "µM"},
      {"measurement": "IC50", "setting": "MV-4-11", "value": 11.7, "unit": "µM"},
      {"measurement": "IC50", "setting": "SUDHL5 [5]", "value": "4.8e-06", "unit": "M"},
      {"measurement": "EC50", "setting": "SUDHL10 [6]", "value": "1.6e-05", "unit": "M"},
      {"measurement": "IC50", "setting": "SUDHL10 [7]", "value": "1.9e-05", "unit": "M"},
      {"measurement": "EC50", "setting": "SUDHL5 [8]", "value": "4.7e-06", "unit": "M"}
    ]}
  ]
}
